Test results as given in US20100179158A1, “INHIBITORS OF CYCLIC AMP PHOSPHODIESTERASES” (priority 2007, published 2010).

Tests used:
[1] = target: T1, PDE4B3 (Mus musculus, UniProt Q8VBU5); assay: cAMP assay in yeast strain expressing PDE4B3; type: cell-based, murine
T1 construct: targets used in the assays are full-length proteins (as opposed to simply the catalytic domain); expressed in transfected cells; host or cells: Schizosaccharomyces pombe, gene integrated at the cgs2 locus
T1 sequence (Q8VBU5 1-721): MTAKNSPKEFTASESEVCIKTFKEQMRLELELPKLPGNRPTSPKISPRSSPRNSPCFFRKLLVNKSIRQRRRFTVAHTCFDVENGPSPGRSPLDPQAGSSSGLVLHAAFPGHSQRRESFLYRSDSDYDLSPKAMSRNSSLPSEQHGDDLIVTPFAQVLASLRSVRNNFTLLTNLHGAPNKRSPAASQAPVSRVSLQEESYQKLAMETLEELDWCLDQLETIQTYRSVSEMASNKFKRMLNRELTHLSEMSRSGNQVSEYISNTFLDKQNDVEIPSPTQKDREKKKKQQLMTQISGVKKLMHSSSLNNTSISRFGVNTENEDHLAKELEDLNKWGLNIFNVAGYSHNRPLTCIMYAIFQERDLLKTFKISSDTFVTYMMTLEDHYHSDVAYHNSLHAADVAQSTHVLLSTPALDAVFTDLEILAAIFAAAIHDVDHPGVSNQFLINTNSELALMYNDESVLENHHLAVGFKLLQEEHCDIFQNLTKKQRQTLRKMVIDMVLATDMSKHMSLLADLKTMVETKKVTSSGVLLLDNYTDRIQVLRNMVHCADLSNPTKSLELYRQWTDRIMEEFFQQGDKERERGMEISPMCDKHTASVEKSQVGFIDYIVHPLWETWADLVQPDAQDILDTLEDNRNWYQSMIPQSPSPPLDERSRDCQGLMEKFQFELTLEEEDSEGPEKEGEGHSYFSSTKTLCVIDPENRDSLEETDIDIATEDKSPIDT

[2] = target: T2, PDE4D3 (Homo sapiens, UniProt Q08499); assay: cAMP assay in yeast strain expressing PDE4D3; type: cell-based
T2 construct: targets used in the assays are full-length proteins (as opposed to simply the catalytic domain); expressed in transfected cells; host or cells: Schizosaccharomyces pombe, gene integrated at the cgs2 locus
T2 sequence (Q08499 1-673 isoform Q08499-2): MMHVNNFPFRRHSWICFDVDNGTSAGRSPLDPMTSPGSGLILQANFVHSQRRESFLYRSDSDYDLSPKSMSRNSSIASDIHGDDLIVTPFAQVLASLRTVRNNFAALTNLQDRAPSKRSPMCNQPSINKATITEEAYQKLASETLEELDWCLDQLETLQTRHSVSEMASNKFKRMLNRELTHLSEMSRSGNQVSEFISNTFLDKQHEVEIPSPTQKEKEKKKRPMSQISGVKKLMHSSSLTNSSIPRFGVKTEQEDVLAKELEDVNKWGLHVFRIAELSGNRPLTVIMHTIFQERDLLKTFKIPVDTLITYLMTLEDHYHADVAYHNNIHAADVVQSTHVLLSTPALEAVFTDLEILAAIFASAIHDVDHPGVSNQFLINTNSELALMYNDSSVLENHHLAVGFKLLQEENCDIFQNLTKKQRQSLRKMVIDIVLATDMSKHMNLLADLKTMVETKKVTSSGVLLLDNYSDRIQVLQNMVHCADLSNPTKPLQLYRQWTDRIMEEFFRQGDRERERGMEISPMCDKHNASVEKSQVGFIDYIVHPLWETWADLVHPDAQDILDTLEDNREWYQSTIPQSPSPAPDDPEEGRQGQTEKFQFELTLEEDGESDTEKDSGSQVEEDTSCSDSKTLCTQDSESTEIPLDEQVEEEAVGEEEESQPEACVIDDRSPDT

cAMP Response (% rolipram), PDE 4B3 [1] [% rolipram]	cAMP Response (% rolipram), PDE 4D3 [2] [% rolipram]	SMILES
71.00	8.00	COC(=O)C1=C(C)N(c2ccccc2Cl)C(=O)/C1=C\c1cccs1 [Compound 27]
51.00	12.00	COC(=O)C1=C(C)N(C2CCCCC2)C(=O)/C1=C\c1cccs1 [Compound 22]
